Experiments:
[1] = test system: fli1:EGFP zebrafish embryos (intersegmental vessel growth); test: fli1:EGFP zebrafish embryo angiogenesis assay; type: in vivo; parameters: fli1:EGFP angiogenesis n (survived/tested): concentration or dose not given beside the values; conditions: for minimal effective concentration: Danio rerio, lowest concentration producing an effect, compounds not producing an effect shown at the highest evaluated concentration; for fli1:EGFP angiogenesis n (survived/tested): embryos alive after 24 hours of exposure
Excerpt: (§1) Zebrafish embryology: The use of zebrafish embryo (Danio rerio) bioassays as a preclinical model in the classification of novel compounds has increased in recent years due to several factors including; low cost, ease of maintenance, speed of embryonic development, transparency of the embryos and genetic conservation between zebrafish and humans (Howe et al., Nature 2013; 496:498; Therapontos et al., PNAS 2009, 106:8573; Mahony et al., PNAS 2013, 110:12703; Beedie et al., Oncotarget 2016, 7(22):33237; Beedie et al., Mol. Cancer Ther. 2015, 14(10):2228). Two established zebrafish reporter lines were used—the fli1:EGFP line, where the fli1 promoter drives expression of enhanced green fluorescent protein within the developing vasculature (Lawson et al., 2002), and the Tg(mpo::EGFP) line (also known as mpo:GFP), which expresses green fluorescent protein via the neutrophil specific myeloperoxidase promoter (Renshaw et al., Blood 2006, 108:3976). The use of these zebrafish transgenic reporter lines allows for the identification of potential anti-angiogenic and anti-inflammatory compounds respectively, and both have been used previously to successfully classify the action of thalidomide analogs (Therapontos et al., 2009; Mahony et al., 2013; Beedie et al., Oncotarget 2016, 7(22):33237; Beedie et al., Mol. Cancer Ther. 2015, 14(10):2228). Zebrafish embryos were treated with analogs as previously described (Mahony et al., 2013). Briefly, fli1:EGFP embryos were collected and embryos were allowed to develop for 24 hours. Embryos were dechorionated manually and exposed to test compounds or vehicle control for a further 24 hours, imaged and analyzed for intersegmental vessel (ISV) growth. At 24 hours post fertilisation (hpf) the ISVs were ideal to study to visualize and analyze the actions of compounds on angiogenesis. At this time point ISVs were rapidly forming beneath the developing head, over the body and had yet to form in the tail (Lawson and Weinstein, Developmental Biology 2002, 248:307; Therapontos and Vargesson, Developmental Dynamics 2010, 239:2761). Additionally, these sprouts would go on to form the bilateral dorsal longitudinal anastomotic vessels. By treating before this fusion and formation occurs, the effect of each compound on the individual vessels as well as overall patterning structural integrity (Isogai et al., Development 2003, 130:5281) could be determined. Tg(mpo::EGFP) were tail fin clipped as previously detailed (Renshaw et al., 2006; Mahony et al., 2013; Beedie et al., Oncotarget 2016, 7(22):33237; Beedie et al., Mol. Cancer Ther. 2015, 14(10):2228) and incubated with test compounds or vehicle control at 72 hours post fertilization. Fish were imaged at 24 hours and the number of migratory neutrophils present at the wound site were counted. Compounds inducing an at least 50% reduction of neutrophils to the wound site were considered to have anti-inflammatory properties in this system. All larvae were assessed for viability and morphological integrity.
To determine if the thalidomide analogs had any effect on angiogenesis, fli1:EGFP embryos (Lawson and Weinstein, Developmental Biology 2002, 248:307-318) were exposed to either vehicle or a compound of interest, over a range of concentrations and over a range of time points starting at 24 hpf. Images were obtained at three time points over 24 hours after exposure to the compounds. The best concentration and time point were selected. CPS49, a compound that is chemically and structurally similar to thalidomide breakdown products, and is tetrafluorinated (which adds stability and bioactivity to the compound) and that causes severe limb defects in chicken embryos, was used as a positive control. The embryos were imaged at 48 hpf (FIGS. 3A3L) and analyzed for both vessel formation and the extent of growth of the vasculature. […]

[2] = test system: mpo:GFP zebrafish embryos (neutrophil migration to the wound site); test: mpo:GFP zebrafish fin-clip neutrophil migration (inflammation) assay; type: in vivo; parameters: mpo:GFP inflammation n (survived/tested): concentration or dose not given beside the values; conditions: for minimal effective concentration: Danio rerio, Neutrophil, lowest concentration producing an effect, compounds not producing an effect shown at the highest evaluated concentration; for mpo:GFP inflammation n (survived/tested): embryos survived/tested at the concentration given
Excerpt: as §1
To assess the immunomodulatory effects of the thalidomide analogs, the mpo:gfp transgenic zebrafish line (Renshaw et al., Blood 2006, 108:3976-3978) was utilized because it is an accepted model of inflammation, and can be used to test the effect of anti-inflammatory agents. These embryos express GFP-tagged myeloperoxidase, where green fluorescence marks the neutrophil cells involved in the inflammatory response process, for example following injury, from 72 hours post fertilization (Renshaw et al., 2006; Mahony et al., 2013; Beedie et al., Oncotarget 2016, 7(22):33237). At 72 hpf the dorsal third of the tail fin was removed and the embryos were immersed in the desired compound or vehicle (FIGS. 5A-5C). The embryos were examined for the effect on the inflammatory response quantified as an induction and migration of neutrophils to the wound site 24 hours later.

TNF-α protein = TNF-α protein level (ELISA) in LPS-challenged RAW 264.7 cells; type: cell-based, mouse; parameters: key: NS=not significant; a “+” sign=anti-inflammatory or increased cell numbers; a “−” sign=cell toxicity or pro-inflammatory; conditions: LPS 30 or 60 ng/mL, 24 h
How it was run: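 RAW 264.7 cells pretreated 1 h with compound in DMSO vehicle, then challenged with LPS (30 or 60 ng/mL) for 24 h at 37° C. Conditioned-media nitrite by Griess (520 nm, sodium nitrite standard curve, 1.5 μM cutoff) in μM; mouse TNF-α by ELISA as pg/ml or % change from control.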

[3] = test system: nitrite levels in the culture media; test: Nitrite level (Griess Reagent System) in LPS-challenged RAW 264.7 cells; type: cell-based, mouse; parameters: key: NS=not significant; a “+” sign=anti-inflammatory or increased cell numbers; a “−” sign=cell toxicity or pro-inflammatory; conditions: LPS 30 or 60 ng/mL, 24 h
Method: Nitrite levels in the culture media were measured by use of the Griess Reagent System (Promega, Madison, Wis.), following the manufacturer's protocol. The O.D. of unknown samples was read at 520 nm λ, compared to a sodium nitrite standard curve (1.5 μM to 100 μM) and nitrite measured media concentrations expressed as μM units. As the lowest nitrite concentration on the Griess Reagent System standard curve was 1.5 μM, this was chosen as the effective cutoff for defining measurable nitrite concentrations. TNF-α protein levels were measured by use of an ELISA specific for mouse TNF-α protein (BioLegend, San Diego, Calif.) and are expressed as a % change from their appropriate control or as pg/ml.
RAW 264.7 cells obtained from ATCC (Manassas, Va., USA) were grown in DMEM media supplemented with 10% FCS, penicillin 100 μg/ml and streptomycin 100 μg/ml, and maintained at 37° C. and 5% CO2. Cells were seeded in 24 well plates and, 24 hours later, were utilized in studies. One hour prior to the initiation of any study, the seeding media was replaced with fresh media (1 mL), and the cells were allowed to equilibrate at 37° C. and 5% CO2.
RAW 264.7 cells were challenged with LPS (Sigma, St Louis, Mo.: serotype 055:B5) from at a final concentration of 30 or 60 ng/mL. This concentration of LPS in RAW 264.7 cells induces a sub-maximal rise in both TNF-alpha and nitrite levels without a loss in cellular viability. This sub-maximal rise is useful for assessing whether the addition of an experimental drug can either lower or further raise levels of TNF-α and nitrite. Twenty four hours following the addition of LPS, conditioned media was harvested and analyzed for quantification of secreted TNF-α protein and nitrite levels. Fresh media was replaced into the wells and cell viability was then assessed.
Thalidomide and analogs were prepared in tissue culture grade DMSO (Sigma). RAW 264.7 cells were pretreated with thalidomide, analogues or vehicle one hour prior to a challenge with LPS. The effects of various concentrations of thalidomide analogues were assessed. All compounds were synthesized to a chemical purity of >99.5%, as assessed by chemical characterization by a combination of 1H NMR, 13C NMR and GC/MS analyses (Bruker AC-300 spectrometer, together with elemental analyses (Atlantic Microlab, Inc., Norcross, Ga.).

RAW 264.7 cells = test: Cell viability (CellTiter 96 AQueous One) of LPS-challenged RAW 264.7 cells; type: cell-based, mouse; parameters: key: NS=not significant; a “+” sign=anti-inflammatory or increased cell numbers; a “−” sign=cell toxicity or pro-inflammatory
How it was run: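 RAW 264.7 murine macrophages pretreated 1 h with compound or DMSO vehicle, then challenged with LPS (serotype 055:B5) at 30 or 60 ng/mL final for 24 h. After media replacement, viability measured by tetrazolium (MTS) conversion, absorbance at 490 nm, reported as O.D.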

| Structure (SMILES) | minimal effective concentration [1] [µg/mL] | fli1:EGFP angiogenesis n (survived/tested) [1] | minimal effective concentration [2] [µg/mL] | mpo:GFP inflammation n (survived/tested) [2] | TNF-α (TNF-α protein; 1 μM) | TNF-α (TNF-α protein; 10 μM) | TNF-α (TNF-α protein; 30 μM) | Nitrite ([3]; 1 μM) | Nitrite ([3]; 10 μM) | Nitrite ([3]; 30 μM) | Viability (RAW 264.7 cells; 1 μM) | Viability (RAW 264.7 cells; 10 μM) | Viability (RAW 264.7 cells; 30 μM) | concentration at which anti-angiogenic activity was shown ([1]; exposure from 24 hpf, imaged at 48 hpf) [µg/mL] |
| --- | --- | --- | --- | --- | --- | --- | --- | --- | --- | --- | --- | --- | --- | --- |
| O=C1c2cccc([N+](=O)[O-])c2CN1c1nc2ccc(C(F)(F)F)cc2s1 [Compound 63] | 200 | 6/23 | 100 | 12/20 | NS | NS | NS | − | − | − | NS | NS | − |  |
| O=C1c2ccccc2CN1C12CC3CC(CC(C3)C1)C2 [Compound 69] | 10 | 6/14 | 200 | 8/17 | NS | NS | NS | NS | NS | NS | NS | NS | NS |  |
| O=C1c2ccccc2C(=O)N1c1nc2ccc(C(F)(F)F)cc2s1 [Compound 59, 2-(6-Trifluoromethyl-benzothiazol-2-yl)-1H-isoindole-1,3(2H)-dione] | 10 | 21/32 | 100 | 6/11 | NS | NS | + | + | NS | + | NS | NS | NS |  |
| Nc1cccc2c1CN(C1C3CC4CC(C3)CC1C4)C2=O (stereo not drawn) [Compound 83] | 20 | 3/12 | 20 | 6/23 | NS | NS | NS | NS | + | + | NS | NS | NS |  |
| Nc1cccc2c1CN(C13CC4CC(CC1C4)C3)C2=O [Compound 85] | 10 | 7/20 | 100 | 11/20 | NS | NS | NS | NS | NS | − | NS | NS | NS |  |
| O=C1c2ccccc2CN1CC12CC3CC(CC(C3)C1)C2 [Compound 70] | 10 | 8/10 | 200 | 10/15 | NS | + | + | NS | NS | + | NS | NS | NS |  |
| O=C1CCC(N2Cc3ccccc3C2=O)C(=O)N1CN1C(=S)c2ccccc2C1=S (stereo not drawn) [Compound 51] | 200 | 7/25 | 1 | 4/11 | + | + | + |  |  |  | NS | NS | − | 200 |
| O=C1CCC(N2Cc3ccccc3C2=O)C(=O)N1CSC(=S)N1CCCCC1 (stereo not drawn) [Compound 53] | 10 | 9/14 | 10 | 13/19 | + | + | NS |  |  |  | − | NS | + |  |
